Measured values published in patent EP3828186B1.
Like-named read-outs stand apart in the source and are kept apart here.

Conditions: rcm bond, Grubbs II

## C[C@@H]1/C=C/C[C@H](NC(=O)OC(C)(C)C)c2cc(ccn2)-c2c(cnn2C)NC1=O
From C=CC[C@H](NC(=O)OC(C)(C)C)c1cc(-c2c(NC(=O)[C@H](C)C=C)cnn2C)ccn1, DCE, 34.7 mM, 120.0 °C, 0.5 h
  ring closure, yield of all isomers: 23%

## [2H]C([2H])([2H])n1ncc2c1-c1ccnc(c1)[C@@H](NC(=O)OC(C)(C)C)CC=C[C@@H](C)C(=O)N2
From [2H]C([2H])([2H])n1ncc(NC(=O)[C@H](C)C=C)c1-c1ccnc([C@H](CC=C)NC(=O)OC(C)(C)C)c1, DCE, 13.2 mM, 120.0 °C, 0.5 h
  ring closure, yield of all isomers: 26%

## C[C@@H]1/C=C/C[C@H](NC(=O)OC(C)(C)C)c2cc(ccn2)-c2c(cnn2C(F)F)NC1=O
From C=CC[C@H](NC(=O)OC(C)(C)C)c1cc(-c2c(NC(=O)[C@H](C)C=C)cnn2C(F)F)ccn1, EtOAc, 5.0 mM, 77.0 °C, 24.0 h
  ring closure, yield of all isomers: 76%

## C[C@@H]1/C=C/C[C@H](NC(=O)OCc2ccccc2)c2cc(ccn2)-c2c(cnn2COCC[Si](C)(C)C)NC1=O
From C=CC[C@H](NC(=O)OCc1ccccc1)c1cc(-c2c(NC(=O)[C@H](C)C=C)cnn2COCC[Si](C)(C)C)ccn1, DCE, 108.0 mM, 120.0 °C, 0.5 h
  ring closure, yield of all isomers: 42%

## C[C@@H]1/C=C/C[C@H](NC(=O)OC(C)(C)C)c2ccnc(c2)-c2c(cnn2C)NC1=O
From C=CC[C@H](NC(=O)OC(C)(C)C)c1ccnc(-c2c(NC(=O)[C@H](C)C=C)cnn2C)c1, DCE, 18.8 mM, 120.0 °C, 0.5 h
  ring closure, yield of all isomers: 19%
